Assay results as given in US20260308222A1, “STABILIZED ANALOGUES OF CALCITONIN” (YISSUM RESEARCH DEVELOPMENT COMPANY OF THE HEBREW …, priority 2024, published 2026).

Assays:
[1] = Circular dichroism analysis, percent α-helicity; assay type: physicochemical; conditions: 10-30 μM peptide, 10 mM phosphate buffer pH 7, SDS, 2 h folding
Description: Following synthesis of the calcitonin analogues, the helicity of the calcitonin analogues was assessed by circular dichroism analysis. Far ultraviolet spectra (FIG. 6) were obtained from 195-260 nm on J-180 spectropolarimeter (Jasco) using 10-30 μM of sCT and all analogues in 10 mM phosphate buffer pH 7 and in the presence of sodium dodecyl sulphate (SDS), which were left for 2 h to allow folding. Each spectrum represents the average of 3 scans, and the mean residue ellipticity (θMRE) was calculated according to the following equation: […]
Percentage helicity of peptides as presented in Table 2 was calculated according to the following equation (Sommese, et al. 2010): […]
where n is the number of amino acids in the peptide.

[2] = Degradation in simulated gastric fluid (SGF); assay type: in vitro ADME; conditions: simulated gastric fluid, pH 1.3, pepsin 0.2 mg/mL stock, pH 1.3, 37 °C; read-out: SGF t1/2
Description: sCT and its analogues were evaluated for their degradation in simulated gastric fluid (SGF). The stock solution of each analogue was prepared by dissolving 2 mg of the peptide in 1 mL water. The stock solution of pepsin enzyme was prepared by dissolving 5 mg of pepsin in 5 mL of 10 mM HCl (1 mg/mL), and then was diluted to a 0.2 mg/mL with 10 mM HCl. 7 For degradation, 34 μL of pepsin (0.2 mg/mL) was added to 100 μL of peptide (2 mg/mL) at pH 1.3 and the reaction incubated at 37° C. To monitor the degradation, 10 μL of the reaction aliquots were taken and quenched with 10 μL of 10 mM NaOH every 30 min for several hours and analyzed by HPLC using XSelect C18 column ([…], 130 A, 4.6×150 mm) with a gradient of 5-70% of 0.1% TFA in MeCN over 20 min with monitoring at 220 nm.

| % α helicity [1] | half-life [2] | Structure (SMILES) |
| --- | --- | --- |
| 62.9% | 47.3 ± 1.9 min | CC(C)C[C@H](NC(=O)[C@H](CCCCN)NC(=O)CNC(=O)[C@H](CC(C)C)NC(=O)[C@@H](NC(=O)[C@@H]1CSSC[C@H](N)C(=O)N[C@@H](CO)C(=O)N[C@@H](CC(N)=O)C(=O)N[C@@H](CC(C)C)C(=O)N[C@@H](CO)C(=O)N[C@@H]([C@@H](C)O)C(=O)N1)C(C)C)C(=O)N[C@@H](CO)C(=O)N[C@@H](CCC(N)=O)C(=O)N[C@H]1CCC(=O)NCCCC[C@@H](C(=O)N[C@@H](CC(C)C)C(=O)N[C@@H](CCC(N)=O)C(=O)N[C@H](C(=O)N[C@@H](Cc2ccc(O)cc2)C(=O)N2CCC[C@H]2C(=O)N[C@@H](CCCNC(=N)N)C(=O)N[C@H](C(=O)N[C@@H](CC(N)=O)C(=O)N[C@H](C(=O)NCC(=O)N[C@@H](CO)C(=O)NCC(=O)N[C@H](C(=O)N2CCC[C@H]2C(N)=O)[C@@H](C)O)[C@@H](C)O)[C@@H](C)O)[C@@H](C)O)NC(=O)[C@H](Cc2c[nH]cn2)NC(=O)[C@H](CC(C)C)NC1=O [CT(E15-K18)] |
| 56.2% | 34.5 ± 0.3 min | CC(C)C[C@H](NC(=O)[C@H](CCCCN)NC(=O)CNC(=O)[C@H](CC(C)C)NC(=O)[C@@H](NC(=O)[C@@H]1CSSC[C@H](N)C(=O)N[C@@H](CO)C(=O)N[C@@H](CC(N)=O)C(=O)N[C@@H](CC(C)C)C(=O)N[C@@H](CO)C(=O)N[C@@H]([C@@H](C)O)C(=O)N1)C(C)C)C(=O)N[C@@H](CO)C(=O)N[C@@H](CCC(N)=O)C(=O)N[C@@H](CCC(=O)O)C(=O)N[C@@H](CC(C)C)C(=O)N[C@@H](Cc1c[nH]cn1)C(=O)N[C@H]1CCCCNCc2cc(ccc2O)C[C@@H](C(=O)N2CCC[C@H]2C(=O)N[C@@H](CCCNC(=N)N)C(=O)N[C@H](C(=O)N[C@@H](CC(N)=O)C(=O)N[C@H](C(=O)NCC(=O)N[C@@H](CO)C(=O)NCC(=O)N[C@H](C(=O)N2CCC[C@H]2C(N)=O)[C@@H](C)O)[C@@H](C)O)[C@@H](C)O)NC(=O)[C@H]([C@@H](C)O)NC(=O)[C@H](CCC(N)=O)NC(=O)[C@H](CC(C)C)NC1=O [KaY-2] |
